Drawing on patent EP2879657B1, “NOVEL SIRT1 ACTIVATORS AND PHARMACEUTICAL OR COSMETIC COMPOSITIONS COMPRISING THEM” (Centre National de la Recherche Scientifique (C.N.R.S.), priority 2012, dated 2014), this text covers activation for six compounds.

The test system of test [1] is adipocytes humains matures. The test can be described thus: Lipolysis: glycerol released by mature adipocytes (AdipoLyze Detection Assay). The format is cell-based. The conditions noted are these: Adipocyte, read-out: augmentation de la quantité de glycérol secrété par les adipocytes. From the text: Les préadipocytes primaires sous-cutanés humains fournis par Lonza ont été mis en culture (10 000 cellules/puits dans des plaques de 96 puits) dans un milieu de croissance (PGM-2, Lonza, PT-9502) pendant une nuit. A J1, les cellules ont été mises dans le milieu de différenciation pendant 12 jours pour acquérir les caractéristiques des adipocytes matures. […]

The next test addresses T1, Sirt1 (Homo sapiens, UniProt Q96EB6).
T1 construct: purchased Cisbio
T1 sequence (Q96EB6 1-747): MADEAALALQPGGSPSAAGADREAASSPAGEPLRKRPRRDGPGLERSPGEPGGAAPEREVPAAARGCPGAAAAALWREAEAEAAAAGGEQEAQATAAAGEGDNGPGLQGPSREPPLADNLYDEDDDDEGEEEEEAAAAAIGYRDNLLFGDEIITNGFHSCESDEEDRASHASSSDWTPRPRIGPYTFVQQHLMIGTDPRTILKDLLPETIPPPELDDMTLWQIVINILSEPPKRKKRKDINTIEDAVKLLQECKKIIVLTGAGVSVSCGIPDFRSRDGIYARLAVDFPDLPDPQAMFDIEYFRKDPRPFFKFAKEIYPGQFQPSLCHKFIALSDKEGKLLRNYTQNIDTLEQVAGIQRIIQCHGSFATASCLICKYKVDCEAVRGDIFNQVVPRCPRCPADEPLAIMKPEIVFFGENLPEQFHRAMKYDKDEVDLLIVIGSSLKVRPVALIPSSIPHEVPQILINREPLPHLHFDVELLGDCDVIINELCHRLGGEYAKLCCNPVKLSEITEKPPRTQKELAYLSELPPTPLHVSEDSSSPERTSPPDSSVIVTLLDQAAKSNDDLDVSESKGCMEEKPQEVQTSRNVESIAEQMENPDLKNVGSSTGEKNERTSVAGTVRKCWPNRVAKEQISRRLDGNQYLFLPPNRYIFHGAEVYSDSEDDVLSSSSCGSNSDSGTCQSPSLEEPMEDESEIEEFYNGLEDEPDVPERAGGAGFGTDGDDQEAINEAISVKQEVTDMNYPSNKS
The test is described as follows: HTRF SIRT1 Assay (Cisbio): enzymatic activity of purified Sirt1. It is filed as biochemical. The conditions noted are these: 0.5 h; at about 2,5 µM (1 µg/ml); vs enzyme without compound; read-out: % d'augmentation de l'activité de Sirt1. The method, then: L'activité enzymatique de Sirt1 a été évaluée à l'aide du kit «HTRF^R SIRT1 Assay » vendu par la Société Cisbio. Lors de ces expériences, l'enzyme purifiée a été incubée à température ambiante en présence du NAD (cofacteur) de son substrat acétylé et du composé à tester utilisé aux concentrations variant de 0,24 µM à 280 µM. « SIRT1 Activator 3 », un activateur commercial de Sirt1 a été utilisé comme un contrôle positif. Après 30 min d'incubation, la réaction enzymatique est arrêtée et la quantité de substrat acétylé restante est évaluée à l'aide d'un anticorps spécifique.
Une augmentation de l'activité enzymatique de Sirt1 en présence des composés décrits s'est traduite par une diminution de la quantité d'anticorps capable de se fixer sur le substrat et donc par une diminution de l'émission de fluorescence qui en résulte, comparé à la valeur obtenue avec l'enzyme seule. Les résultats sont exprimés en % d'augmentation de l'activité de Sirt1 par rapport à celle obtenue avec l'enzyme sans ajout des composés.
A general note: In TR-FRET formats the signal depends on donor and acceptor labels being close together.

Where [2] appears, read: 50 µM, mature adipocytes treated 72h, culture supernatant.

Where two headings read alike, the source gives them in different places. Where only a bound is given, the exact number is not on record here.

Regarding `CC(=O)N[C@H]1CC[C@@]2(C)C(=CC[C@H]3[C@@H]4CC[C@H]([C@H](C)NC(C)=O)[C@@]4(COC(C)=O)CC[C@@H]32)C1` (single isomer, unassigned; diac) [C3, Acétatede 3 β, 20 α-diacétamido-pregn-5-en-18-ol], the activation at 50 µM in test [1] (setting [2]) is 18%.
Turning to `C[C@@H]([C@H]1CC[C@H]2[C@@H]3CC[C@H]4C[C@@H](O)CC[C@]4(C)[C@H]3CC[C@]12C)N(C)C` [C1, 20-(diméthylamino)-, (3β,5α,20S)-pregnan-3-ol], the activation at 2.5 µM at Sirt1 was over 50%. For the same compound, the activation at 50 µM in test [1] (72 h) turned out to be 44%.
Consider `CC(=O)N(C)[C@H]1CC[C@@]2(C)[C@@H](CC[C@@H]3[C@@H]2CC[C@]2(C)[C@@H]([C@H](C)N(C)C)CC[C@@H]32)C1` [C2, N-[(3 β, 5 α, 20S)-20-(diméthylamino)pregnan-3-yl]-N-méthyl-acétamide], for which the activation at 50 µM in test [1] (setting [2]) was determined as 24%.
For the compound `CC(=O)N(C)[C@H]1CC[C@@]2(C)C(=C[C@H](O)[C@H]3[C@@H]4CC[C@@H]5[C@H](C)OC(=O)[C@@]54CC[C@@H]32)C1` [C4, Acide 3-(acétylméthylamino)-7,20-dihydroxy-, γ-lactone, (3 β, 7 β ,20S)-pregn-5-èn-18-oïque], the activation at 2.5 µM at Sirt1 is over 50%. For the same compound, the activation at 50 µM in test [1] (setting [2]) amounted to 10%.
In the case of `CC(=O)N(C)[C@H]1CC[C@@]2(C)C(=CC(=O)[C@H]3[C@@H]4CC[C@@H]5[C@H](C)OC(=O)[C@@]54CC[C@@H]32)C1` [C5, Acide 20 α-hydroxy-3 β-(N-méthylacétamido)-7-oxo-, γ-lactone pregn-5-èn-18-oïque], the activation at 50 µM in test [1] (setting [2]) amounted to 14%.
With `CC(=O)N(C)[C@H]1CC[C@@]2(C)C(=CC[C@H]3[C@@H]4CC[C@@H]5[C@H](C)N(C(C)=O)C[C@@]54CC[C@@H]32)C1` [C6, N-acétyl-3 β-(N-méthylacétamido)-norcon-5-énine], the activation at 2.5 µM at Sirt1 is over 50%. Besides, the activation at 50 µM in test [1] (setting [2]) was 41%.
